# Experimental data published in publication PMC6539005, “Half-Wave Potentials and In Vitro Cytotoxic Evaluation of 3-Acylated 2,5-Bis(phenylamino)-1,4-benzoquinones on Cancer Cells” (Molecules, 2019).
# Like-named read-outs stand apart in the source and are kept apart here.
# What was measured:
# HEK-293 kidney cells = test: MTT cytotoxicity assay, HEK-293; assay type: cell-based; conditions: Homo sapiens, HEK293, non-tumor cells, 48 h incubation (b12: 72 h), n = 3, read-out: IC50 ± SEM HEK-293
# Description: (§1) The 3-acyl-2,5-bis(phenylamino)-1,4-benzoquinones 2a–q were evaluated for their in vitro cytotoxic activities against normal human embryonic kidney cells (HEK-293 cells) and two human cancer cell lines (T24 and DU-145 cells) in 72 h drug exposure assays. The cytotoxic activities of the new compounds were measured using conventional microculture tetrazolium reduction assays. The cytotoxic activities are expressed in terms of IC50. Doxorubicin, a clinically used anti-cancer agent, was taken as a positive control.
# (§2) Human cancer cell lines T24 (bladder) and DU-145 (prostate), and non-tumor HEK-293 cells were obtained from the American Type Culture Collection (ATCC, Manassas, VA, USA). The cultures were maintained at a density of 1× 10^5 cells/mL and the medium was changed at 48- to 72-h intervals. They were cultured in high-glucose Dulbecco’s modified Eagle medium (Gibco, Grand Island, NY, USA) supplemented with 10% fetal calf serum, penicillin (100 U/mL), and streptomycin (100 μg/mL). All cultures were kept at 37 °C in 95% air/5% CO2 at 100% humidity. Phosphate-buffered saline (PBS) was purchased from Gibco. Cells were incubated at the indicated times at 37 °C, with or without quinones at various concentrations.
# (§3) The cytotoxicity of the quinones was assessed by following the reduction of MTT (3-(4,5-Dimethylthiazol-2-yl)-2,5-diphenyltetrazolium bromide) to formazan blue. Cells were seeded into 96-well plates at a density of 10,000 cells/well for 24 h and then incubated for 48 h, with or without the quinone derivatives. Doxorubicin was used as the standard chemotherapeutic agent (positive control). Cells were then washed twice with warm PBS and incubated with MTT (0.5 mg/mL) for 2 hours at 37 °C. Blue formazan crystals were solubilized by adding 100 µL DMSO/well, and the optical density of the coloured solutions was subsequently read at 550 nm. Results are expressed as percentage of MTT reduction, compared to untreated control conditions. The IC50 values were calculated using the GraphPad Prism software (San Diego, CA, USA).
# T24 (bladder) cells = test: MTT cytotoxicity assay, T24; assay type: cell-based, human; conditions: 48 h incubation (b12: 72 h), n = 3, read-out: IC50 ± SEM T24
# Description: as §1, §2, §3
# DU-145 (prostate) cells = test: MTT cytotoxicity assay, DU-145; assay type: cell-based; conditions: Homo sapiens, 48 h incubation (b12: 72 h), n = 3, read-out: IC50 ± SEM DU-145
# Description: as §1, §2, §3
# T24 and DU-145 cells = test: MTT cytotoxicity assay, both cancer cell lines; assay type: cell-based; conditions: Homo sapiens; mean of T24 and DU-145 IC50
# Description: as §1, §2, §3
# [1] = Half-wave potentials by cyclic voltammetry in acetonitrile; assay type: physicochemical; conditions: rt, Pt electrode, vs non-aqueous Ag/Ag+, given as negative of potential; for −E^I 1/2: first one-electron reduction, 0.1 M tetraethylammonium tetrafluoroborate; for −E^II 1/2: second one-electron reduction
# Description: The members of the 3-acyl-2,5-bis(phenylamino)-1,4-benzoquinone series 2a–q were evaluated for their half-wave potentials (E^I 1/2 and E^II 1/2). They were measured by cyclic voltammetry in acetonitrile at room temperature, using a platinum electrode and 0.1 M tetraethylamoniumtetrafluoroborate as the supporting electrolyte. The voltammograms were run in the potential range from 0.0 to −2.0 V versus non-aqueous Ag/Ag^+.
# [2] = test system: human colon adenocarcinoma; parameters: method as in PMID 3746824; conditions: cited from earlier work
Compound,IC50 (HEK-293 kidney cells),IC50 (T24 (bladder) cells; Homo sapiens),IC50 (DU-145 (prostate) cells),IC50 (T24 and DU-145 cells),−E^I 1/2 [1],−E^II 1/2 [1],in vitro inhibitory activity against human colon adenocarcinoma proliferation [2],IC50 (T24 (bladder) cells)
"CC(=O)C1=C(Nc2ccccc2)C(=O)C=C(Nc2ccccc2)C1=O [2a, 3-Acetyl-2,5-bis(phenylamino)-1,4-benzoquinone]",> 100 µM,> 100 µM,96 ± 7.9 µM,> 98 µM,565 mV,1170 mV,–,–
"CCCC(=O)C1=C(Nc2ccccc2)C(=O)C=C(Nc2ccccc2)C1=O [2b, 3-Butiryl-2,5-bis(phenylamino)-1,4-benzoquinone]",> 100 µM,> 100 µM,92.2 ± 8.7 µM,> 96.1 µM,570 mV,1150 mV,–,–
"COc1ccc(C(=O)C2=C(Nc3ccccc3)C(=O)C=C(Nc3ccccc3)C2=O)cc1OC [2e, 3-(3,4-Dimethoxybenzoyl)-2,5-bis(phenylamino)-1,4-benzoquinone]",> 100 µM,58.2 ± 7.1 µM,47.7 ± 4.2 µM,52.9 µM,560 mV,1140 mV,–,–
"COc1cc(C(=O)C2=C(Nc3ccccc3)C(=O)C=C(Nc3ccccc3)C2=O)cc(OC)c1OC [2f, 3-(3,4,5-Trimethoxybenzoyl)-2,5-bis(phenylamino)-1,4-benzoquinone]",85.8 ± 0.9 µM,51.8 ± 6.2 µM,20.4 ± 2.1 µM,36.1 µM,560 mV,1120 mV,–,–
"O=C1C=C(Nc2ccccc2)C(=O)C(C(=O)c2ccco2)=C1Nc1ccccc1 [2g, 3-(Furan-2-carbonyl)-2,5-bis(phenylamino)-1,4-benzoquinone]",61.7 ± 4.2 µM,40.2 ± 4 µM,39.9 ± 3.6 µM,40 µM,570 mV,870 mV,–,–
"O=C1C=C(Nc2ccccc2)C(=O)C(C(=O)c2cccs2)=C1Nc1ccccc1 [2h, 3-(Thiophen-2-carbonyl)-2,5-bis(phenylamino)-1,4-benzoquinone]",> 100 µM,75.6 ± 9.1 µM,80.9 ± 9.7 µM,78.2 µM,500 mV,1030 mV,–,–
"COc1cc(NC2=CC(=O)C(Nc3cc(OC)c(OC)c(OC)c3)=C(C(=O)c3ccccc3)C2=O)cc(OC)c1OC [2i, 3-Benzoyl-2,5-bis-[(3,4,5-trimethoxyphenyl)amino]-1,4-benzoquinone]",> 100 µM,> 100 µM,92.9 ± 1.4 µM,> 96.4 µM,800 mV,950 mV,–,–
"COc1ccc(C(=O)C2=C(Nc3cc(OC)c(OC)c(OC)c3)C(=O)C=C(Nc3cc(OC)c(OC)c(OC)c3)C2=O)cc1 [2j, 3-(4-Methoxybenzoyl)-2,5-bis-[(3,4,5-trimethoxyphenyl)amino]-1,4-benzoquinone]",56.9 ± 5.2 µM,85.3 ± 1.9 µM,72.4 ± 2.6 µM,78.8 µM,740 mV,950 mV,–,–
"COc1cc(C(=O)C2=C(Nc3cc(OC)c(OC)c(OC)c3)C(=O)C=C(Nc3cc(OC)c(OC)c(OC)c3)C2=O)ccc1O [2k, 3-(4-Hydroxy-3-methoxybenzoyl)-2,5-bis-[(3,4,5-trimethoxyphenyl)amino]-1,4-benzoquinone]",28.3 ± 1.5 µM,> 100 µM,45.9 ± 3.2 µM,> 72.9 µM,610 mV,1010 mV,–,–
"COc1cc(NC2=CC(=O)C(Nc3cc(OC)c(OC)c(OC)c3)=C(C(=O)c3ccco3)C2=O)cc(OC)c1OC [2l, 3-(Furan-2-carbonyl)-2,5-bis-[(3,4,5-trimethoxyphenyl)amino]-1,4-benzoquinone]",33 ± 4.8 µM,47.1 ± 2 µM,23 ± 2.3 µM,35 µM,790 mV,930 mV,–,–
"COc1cc(NC2=CC(=O)C(Nc3cc(OC)c(OC)c(OC)c3)=C(C(=O)c3cccs3)C2=O)cc(OC)c1OC [2m, 3-(Thiophen-2-carbonyl)-2,5-bis-[(3,4,5-trimethoxyphenyl)amino]-1,4-benzoquinone]",30.7 ± 3.1 µM,63.2 ± 0.6 µM,48.6 ± 3 µM,55.9 µM,850 mV,1010 mV,–,–
"O=C1C=C(Nc2ccc(F)cc2)C(=O)C(C(=O)c2ccccc2)=C1Nc1ccc(F)cc1 [2n, 3-Benzoyl-2,5-bis-[(4-fluorophenyl)amino]-1,4-benzoquinone]",> 100 µM,74.5 ± 2.2 µM,> 100 µM,> 87.2 µM,560 mV,1040 mV,–,–
"COc1cc(C(=O)C2=C(Nc3ccc(F)cc3)C(=O)C=C(Nc3ccc(F)cc3)C2=O)ccc1O [2o, 3-(4-Hydroxy-3-methoxybenzoyl)-2,5-bis-[(4-fluorophenyl)amino]-1,4-benzoquinone]",> 100 µM,> 100 µM,> 100 µM,> 100 µM,550 mV,920 mV,–,–
"O=C1C=C(Nc2ccc(F)cc2)C(=O)C(C(=O)c2ccco2)=C1Nc1ccc(F)cc1 [2p, 3-(Furan-2-carbonyl)-2,5-bis-[(4-fluorophenyl)amino]-1,4-benzoquinone]",72.8 ± 7 µM,> 100 µM,90 ± 6.4 µM,> 95 µM,680 mV,950 mV,–,–
"O=C1C=C(Nc2ccc(F)cc2)C(=O)C(C(=O)c2cccs2)=C1Nc1ccc(F)cc1 [2q, 3-(Thiophen-2-carbonyl)-2,5-bis-[(4-fluorophenyl)amino]-1,4-benzoquinone]",> 100 µM,> 100 µM,> 100 µM,> 100 µM,730 mV,980 mV,–,–
"COc1ccc(C(=O)C2=C(Nc3ccc(F)cc3)C(=O)C=C(Nc3ccc(F)cc3)C2=O)cc1 [2ñ, 3-(4-Methoxybenzoyl)-2,5-bis-[(4-fluorophenyl)amino]-1,4-benzoquinone]",> 100 µM,> 100 µM,> 100 µM,> 100 µM,710 mV,860 mV,–,–
"O=C1C=C(Nc2ccccc2)C(=O)C=C1Nc1ccccc1 [A, 2,5-bis(phenylamino)benzoquinone]",–,–,–,–,–,–,good in vitro inhibitory activity,–
"COc1cccc2c1C(=O)c1c(O)c3c(c(O)c1C2=O)C[C@@](O)(C(=O)CO)C[C@@H]3O[C@H]1C[C@H](N)[C@H](O)[C@H](C)O1 [DOX, Doxorubicin, reference compound]",–,0.43 µM,0.93 ± 0.06 µM,0.69 µM,–,–,–,0.46 ± 0.08 µM
